Target: T1, SGK2 (Homo sapiens, UniProt Q9HBY8)
T1 construct: purchased Thermo Fisher Scientific (Life Technologies) SelectScreen
Experiment: SelectScreen Z'LYTE
Type: biochemical
In short: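 NU5455 was profiled across the SelectScreen Broad panel of kinase activity and binding assays. Z'LYTE reactions such as CSF1R ran at apparent Km ATP, while the Adapta CAMK1 assay used ATP listed as 10. Values are given as percent.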

T1 sequence (Q9HBY8 whole entry): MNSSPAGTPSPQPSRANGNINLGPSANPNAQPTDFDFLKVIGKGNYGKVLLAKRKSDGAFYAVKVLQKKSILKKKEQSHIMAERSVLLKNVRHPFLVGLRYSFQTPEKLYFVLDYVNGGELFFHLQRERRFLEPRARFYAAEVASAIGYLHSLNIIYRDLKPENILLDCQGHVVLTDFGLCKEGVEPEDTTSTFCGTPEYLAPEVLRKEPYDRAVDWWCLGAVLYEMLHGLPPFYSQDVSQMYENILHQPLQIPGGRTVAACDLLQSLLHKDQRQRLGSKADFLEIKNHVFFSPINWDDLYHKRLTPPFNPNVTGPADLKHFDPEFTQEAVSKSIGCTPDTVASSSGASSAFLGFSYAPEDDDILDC

Work on `CN(C(=O)CN1CCOCC1)c1ccc2sc3c(-c4cccc5c(=O)cc(N6CC7CCC(C6)O7)oc45)cccc3c2c1` [NU5455] yielded an inhibition at 1 µM of -2.7%.

— publication PMC6934184, “Selective DNA-PKcs inhibition extends the therapeutic index of localized radiotherapy and chemotherapy” (The Journal of Clinical Investigation, 2019)
